Data reported in patent publication US20150087527A1, “METHOD AND KIT FOR THE CLASSIFICATION AND PROGNOSIS OF TISSUE OR ORGAN FIBROSIS IN A REPARATIVE OR REACTIVE PROCESS” (VIVATECH, priority 2012, published 2015).

Key:
αSMA expression in NHDF = test: Ex vivo model for fibrosis or hypertrophic scar: αSMA expression by RT-qPCR and Western Blot; type: cell-based, human; details: fibroblasts cultivated with TGF-β (10 ng/mL TGF-β1); FIGS. 1 and 2
Method: To study the myofibroblasts involved in generating hypertrophic or keloid scars, NHDF were cultivated on collagen coated culture plates in DMEM-F12 (Invitrogen), supplemented with 10% FCS (Invitrogen), 5 μg/mL of insulin and 1 ng/mL of b-FGF (PromoKine) and 10 ng/mL of TGF-β1 (Promocell), as TGF-β1 is known to induce the expression of αSMA in fibroblasts (Desmouliere A, Geinoz A, Gabbiani F, Gabbiani G (1993) Transforming growth factor-beta 1 induces alpha-smooth muscle actin expression in granulation tissue myofibroblasts and in quiescent and growing cultured fibroblasts. J Cell Biol, 1993 July, 122(1): 103-111). […]
This αSMA expression was assessed by RT-qPCR (mRNA levels) and by Western Blot (protein).
Total proteins were extracted by scratching the cells with lysis buffer (TRIS, NaCl, NP40, EDTA, IMDTT) and incubated 30 min in ice. […] Protein concentration was determined according to BCA method (Sigma). […] Signals were detected by ECL chemiluminescence using UptiLight HS WB Substrate (Uptima, Interchim). Bands were digitized with a scanner and the ratio between all bands density of the same blot was calculated by software (ImageJ 1.43u, 64-bit). […]
After four days of experiment, treated fibroblasts were detached with TRIzol Reagent (Invitrogen) and stored at −80° C. […] Total RNA was quantified on the NanoDrop 2000c Spectrophotometer (Thermo Scientific). […]

[1] = system: PI16 mRNA in NHDF (Normal Human Dermal Fibroblast); test: Timing of PI16 mRNA expression after TGFbeta treatment (RTqPCR); type: cell-based; details: after 1 h of TGFbeta, FIG. 4A and B
Method: Quantitative real-time PCR (RT-qPCR) was done using 5 μL of 1:20 diluted cDNA on the LightCycler480 system (Roche) using Maxima SYBR Green qPCR Master Mix (Fermentas). Forward and reverse primers were designed by Eurofins (MWG, αSMA forward: […] (SEQ ID NO:1), αSMA reverse: […] (SEQ ID NO:2)) and a 100 μM stock was stored at −20° C. Forward and reverse primer pairs were used for each RT-qPCR reaction. The cycling conditions were as follows: an initial 95° C. for 10 minutes, followed by 45 cycles of 95° C. for 15 sec, 58° C. for 30 sec, 72° C. for 20 sec. LightCycler 480 SW 1.5 was used to evaluate the TM curves, to determine the Cp and to approximate the relative concentration for each amplification reaction.
NHDF (Normal Human Dermal Fibroblast) were treated with TGFbeta as described previously for different times (between 1 h and 96 h). After treatment mRNA were extracted and levels of PI16 mRNA were assessed by RTqPCR.

TGF-β: TGF-β1 (Promocell), known to induce the expression of αSMA in fibroblasts
αSMA expression (mRNA and protein) (αSMA expression in NHDF): high level | PI16 mRNA up regulation after TGFbeta treatment [1]: 3 ×
